Measured values: patent publication US8735388B2, “Heterocyclic compounds with affinity to muscarinic receptors” (Abbvie B. V. A., priority 2007, dated 2014)
Where two headings read alike, the source gives them in different places.

Tests used:
[1] = target: T1, Muscarine M4 (GPCR-A-MA-ACH M4) (Homo sapiens, UniProt P08173); assay: Muscarine M4 receptor binding, 3H-4DAMP; conditions: human M4, CHO cells, ligand 0.2 nM, 60 min/22° C., read-out: RB Musc. M4 3H-DAMP pKi (converted)
T1 construct: expressed in transfected cells; host or cells: CHO cells
T1 sequence (P08173 1-479): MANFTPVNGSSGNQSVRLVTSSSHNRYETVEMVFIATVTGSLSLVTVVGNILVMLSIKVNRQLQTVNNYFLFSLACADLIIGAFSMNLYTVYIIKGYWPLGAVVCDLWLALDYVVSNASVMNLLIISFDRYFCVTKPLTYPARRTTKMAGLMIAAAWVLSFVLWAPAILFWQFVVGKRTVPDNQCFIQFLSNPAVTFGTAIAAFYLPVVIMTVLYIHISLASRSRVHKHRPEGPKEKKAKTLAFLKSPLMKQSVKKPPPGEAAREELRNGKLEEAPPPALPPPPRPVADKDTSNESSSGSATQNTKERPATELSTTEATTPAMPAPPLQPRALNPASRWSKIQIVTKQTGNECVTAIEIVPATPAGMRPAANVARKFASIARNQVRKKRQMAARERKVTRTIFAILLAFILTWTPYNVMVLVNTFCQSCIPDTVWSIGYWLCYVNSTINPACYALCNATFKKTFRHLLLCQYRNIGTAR
Outline: (§1)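 Human M1 ([3H]-pirenzepine), M3, and M4 ([3H]-4DAMP or [3H]-oxotremorine) receptor preparations incubated with radioligand and compound, first at 10 μM, then at 10-fold lower concentrations if inhibition exceeded 40%. Bound ligand separated by glass-fibre filtration and counted by scintillation. IC50 from Hill fit, converted to Ki via Cheng-Prusoff, reported as pKi.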

[2] = target: T2, Muscarine M1 (GPCR-A-MA-ACH M1) (Homo sapiens, UniProt P11229); assay: Muscarine M1 receptor binding, 3H-Pirenzepine; conditions: human M1, CHO cells, ligand 2 nM, 60 min/22° C., read-out: RB Musc. M1 3H-Pirenzepine pKi (converted)
T2 construct: expressed in transfected cells; host or cells: CHO cells
T2 sequence (P11229 1-460): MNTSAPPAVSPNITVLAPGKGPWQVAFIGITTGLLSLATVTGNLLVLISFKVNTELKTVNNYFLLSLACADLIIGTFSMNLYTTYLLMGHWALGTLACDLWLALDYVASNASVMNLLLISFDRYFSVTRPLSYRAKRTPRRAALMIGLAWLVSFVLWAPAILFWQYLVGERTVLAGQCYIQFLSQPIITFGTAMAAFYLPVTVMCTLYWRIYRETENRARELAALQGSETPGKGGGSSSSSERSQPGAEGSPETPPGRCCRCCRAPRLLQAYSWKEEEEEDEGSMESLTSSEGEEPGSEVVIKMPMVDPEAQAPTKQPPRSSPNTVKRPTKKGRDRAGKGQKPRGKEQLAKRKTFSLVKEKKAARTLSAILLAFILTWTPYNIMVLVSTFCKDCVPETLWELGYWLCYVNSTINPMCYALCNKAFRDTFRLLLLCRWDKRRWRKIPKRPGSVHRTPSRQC
Outline: as §1

[3] = target: T3, Muscarine M2 (GPCR-A-MA-ACH M2) (Cavia porcellus, UniProt H0VRN8); assay: Muscarine M2 functional assay, isolated organ (left atrium, electrically paced), agonist and antagonist mode; set-up: species or system Guinea Pig; conditions: for EC50: read-out: Cell funct. Musc. M2 Agonism pEC50 (converted)
T3 construct: from tissue; host or cells: guinea pig left atrium (electrically paced)
T3 sequence (H0VRN8 1-466): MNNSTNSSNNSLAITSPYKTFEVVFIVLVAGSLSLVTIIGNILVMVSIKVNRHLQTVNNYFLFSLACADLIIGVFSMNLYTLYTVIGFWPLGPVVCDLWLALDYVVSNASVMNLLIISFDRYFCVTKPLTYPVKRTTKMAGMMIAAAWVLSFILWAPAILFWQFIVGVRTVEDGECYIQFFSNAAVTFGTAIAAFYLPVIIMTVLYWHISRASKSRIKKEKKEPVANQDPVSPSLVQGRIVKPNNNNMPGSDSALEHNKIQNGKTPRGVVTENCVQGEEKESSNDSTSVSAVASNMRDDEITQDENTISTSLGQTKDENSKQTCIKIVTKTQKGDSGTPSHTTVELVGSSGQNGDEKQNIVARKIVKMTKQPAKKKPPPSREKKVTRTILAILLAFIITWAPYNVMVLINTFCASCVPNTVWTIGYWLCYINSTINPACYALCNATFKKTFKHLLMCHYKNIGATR

[4] = target: T4, Muscarine M3 (GPCR-A-MA-ACH M3) (Cavia porcellus, UniProt H0W1Z3); assay: Muscarine M3 functional assay, isolated organ (ileum), agonist and antagonist mode; set-up: species or system Guinea Pig; conditions: for EC50: read-out: Cell funct. Musc. M3 Agonism pEC50 (converted)
T4 construct: from tissue; host or cells: guinea pig ileum
T4 sequence (H0W1Z3 1-590): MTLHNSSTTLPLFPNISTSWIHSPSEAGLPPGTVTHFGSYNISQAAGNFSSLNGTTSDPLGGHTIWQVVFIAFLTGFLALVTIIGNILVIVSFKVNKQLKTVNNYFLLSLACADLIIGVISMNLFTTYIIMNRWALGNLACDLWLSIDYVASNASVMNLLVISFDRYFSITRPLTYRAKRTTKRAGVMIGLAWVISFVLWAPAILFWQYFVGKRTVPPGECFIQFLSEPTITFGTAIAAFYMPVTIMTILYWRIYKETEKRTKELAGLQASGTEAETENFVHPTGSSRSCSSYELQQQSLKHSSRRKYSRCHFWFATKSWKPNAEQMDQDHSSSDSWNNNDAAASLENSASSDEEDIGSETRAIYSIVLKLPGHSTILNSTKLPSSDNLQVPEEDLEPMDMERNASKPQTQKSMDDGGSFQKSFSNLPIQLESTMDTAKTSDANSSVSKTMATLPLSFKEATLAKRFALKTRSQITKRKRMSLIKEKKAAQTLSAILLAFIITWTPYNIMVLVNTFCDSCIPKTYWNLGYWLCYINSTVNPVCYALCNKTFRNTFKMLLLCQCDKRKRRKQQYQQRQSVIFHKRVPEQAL

[5] = Stability in human liver homogenate (metabolic stability in vitro); format: in vitro ADME; conditions: read-out: t ½
Text: DÖRJE, F., WESS, J., LAMBRECHT, G., TACKE, R., […], E. and BRANN, M. R. (1991) Antagonist binding profiles of five cloned human muscarinic receptor subtypes. J. Pharmacol. Exp. Ther., 256: 727-733. • […], M. H. (1990) Rat hippocampal muscarinic autoreceptors are similar to the M2 (cardiac) subtype: comparison with hippocampal M1, atrial M2 and ileal M3 receptors. Brit. J. Pharmacol., 99: 753-761. • PERALTA, E. G., ASHKENAZI, A., WINSLOW, J. W., SMITH, D. H., […], J. and CAPON, D. J. (1987) Distinct primary structures, ligand-binding properties and tissue-specific expression of four human muscarinic acetylcholine receptors. EMBO. J., 6: 3923-3929. Determination of Metabolic Stability (In Vitro)
Method used according to procedures described by DI, L. et al., Journal of Biomolecular Screening, Vol. 8, No. 4, 453-462 (2003).

[6] = read-out: Cell funct. Musc. M2 Antagonism pA2 (converted)

C=CCCCSc1c[nH]nc1C1=CCCN(C)C1 [Compound 22L]
Ki [1]: 100 nM
Ki [2]: 794 nM
EC50 [3]: > 1000 nM
Kb [3, 6]: > 1000 nM
Kb [4]: > 1000 nM
EC50 [4]: > 1000 nM
half-life [5]: 0.933 h

CN1CCC=C(c2n[nH]cc2SCCC=C(F)F)C1 [Compound 22J, 3-[4-(4,4-Difluoro-but-3enylsulfanyl)-1H-pyrazol-3-yl]-1,2,5,6-tetrahydro-1-methylpyridine]
Ki [1]: 251 nM
Ki [2]: 631 nM
EC50 [3]: > 1000 nM
Kb [3, 6]: > 1000 nM
Kb [4]: > 1000 nM
EC50 [4]: > 1000 nM
half-life [5]: 2.15 h

CCOCCSc1c[nH]nc1C1=CCCN(C)C1 [Compound 22O, 3-[4-(2-Ethoxy-ethylsulfanyl)-1H-pyrazol-3-yl]-1,2,5,6-tetrahydro-1-methylpyridine]
Ki [1]: 794 nM
Ki [2]: 7940 nM
Kb [3]: 20 nM
EC50 [3]: > 1000 nM
Kb [4]: > 1000 nM
EC50 [4]: > 1000 nM
half-life [5]: 4.08 h

C=CCCCOc1c[nH]nc1C1=CCCN(C)C1 [Compound 33F, 3-(4-Pent-4-enyloxy-1H-pyrazol-3-yl)-1,2,5,6-tetrahydro-1-methylpyridine]
Ki [1]: 501 nM
Ki [2]: 3980 nM
EC50 [3]: > 1000 nM
Kb [3, 6]: > 1000 nM
Kb [4]: > 1000 nM
EC50 [4]: > 1000 nM
half-life [5]: 3.83 h

CCCCCOc1c[nH]nc1C1=CCCN(C)C1 [Compound 33G, 3-(4-Pentyloxy-1H-pyrazol-3-yl)-1,2,5,6-tetrahydro-1-methylpyridine]
Ki [1]: 200 nM
Ki [2]: 1580 nM
EC50 [3]: > 1000 nM
Kb [3, 6]: > 1000 nM
Kb [4]: > 1000 nM
EC50 [4]: > 1000 nM
half-life [5]: 0.933 h
